The conditions of assay [1]: background statement; cited from earlier work.
The subject of assay [2] is hippocampal CA1 field potentials (glutamate acting mainly through AMPA receptors). In words: Inhibition of CA1 field potentials in hippocampal slices (glutamatergic transmission), method of Tarnawa et al. Also on record: species or system rat. As to the method:
The effects of the compounds on the glutamatergic transmission were studied in hippocampal slices applying the method of Tarnawa et al. (Acta Physiol. Hung., 79, 163, 1992). 400 μm thick slices were prepared from rat brain and maintained in a chamber of interface type under simulated […] conditions. The Schaffer collaterals were stimulated and field potentials were recorded from the pyramidal cells of the hippocampal CA1 region. The neurotransmitter involved in this process is glutamate acting mainly through AMPA receptors.

Assay [3] shares this test system. The settings on record: known AMPA antagonist; cited from earlier work.

Each structure is given as a SMILES string.

In the case of `CC1=NN=C(c2ccc(N)cc2)c2cc3c(cc2C1)OCO3` [GYKI-52466, 1-(4-aminophenyl)-4-methyl-7,8-methylenedioxy-5H-2,3-benzodiazepine, reference compound], in assay [1], the “duration of action (in words)” value is reported as “rather short”; the “known pharmacological activity (in words)” value was “non-NMDA-glutamic acid antagonist having spasmolytic and antiischemic activities”. Further, the “Inhibition (%) 30 minutes after drug administration” value in assay [2] (50 μM, 30 minutes after drug administration) is recorded as 94.5 ± 2.07%. For the same compound, in assay [2] (50 μM, 60 minutes after drug administration), the “Inhibition (%) 60 minutes after drug administration” value came to 100 ± 0%. Further, the “Inhibition (%) after 30 minutes wash-out” value in assay [2] (50 μM, after 30 minutes wash-out, *p < 0.05 compared to the 60 minutes value) was determined as 84.6 ± 7.37%. In assay [2] (wash-out lasting 30 minutes vs preceding 60 minutes incubation), the “effect of 30 minutes wash-out on the inhibition” value was “significantly smaller than that observed after the preceding incubation period”. The “inhibition of the CA1 field potentials (in words)” value in assay [3] is given as “concentration-dependently inhibits the CA1 field potentials”.

These data come from US6075018A, “1-[2-(substituted vinyl)]-3,4-dihydro-4-dihydro-5H-2,3-benzodiazepine derivatives” (priority 1995, dated 2000).
